Reference: patent US20070190029A1, “Listeria-induced immunorecruitment and activation, and methods of use thereof” (Cerus Corporation, priority 2005, published 2007)

Legend:
serum cytokines = assay: Cytokine concentrations in mouse serum after administering Listeria, poly(I:C), or CpG (Table 7); type: in vivo
Procedure: Cytokine levels were measured in serum, where the serum was from blood harvested from mice at various times after administering Listeria or a toll-like receptor (TLR) agonist. The treatment groups were (1) Salt water (HBSS) treatment only (0.2 ml); (2) L. monocytogenes ΔactAΔinlB (1×10^7 bacteria); (3) L. monocytogenes Δhly (deleted in the gene encoding listeriolysin) (3×10^8 bacteria); (4) L. monocytogenes killed but metabolically active (KBMA) (3×10^8 bacteria) (see, e.g. Brockstedt, et al. (2005) Nat. Medicine 11:853-860); (5) heat killed L. monocytogenes ΔactAΔinlB (3×10^8 bacteria); (6) poly(I:C) (0.1 mg); or (7) CpG (0.1 mg). Peripheral blood was withdrawn at various times, and assessed for cytokine concentration (Mouse Cytokine/Chemokine LINCOplex® Kit Catalog # MCYTO-70K; Linco, St. Charles, Mo.; or BD® Cytometric Bead Array, San Jose, Calif.). CpG was CpG ODN 1826, purchased through Invivogen. Cytokine levels were measured on samples withdrawn at 2, 4, 8, 12, and 24 hours after administration of bacteria or TLR agonist.
The cytokines measured included granulocyte-colony stimulating factor (G-CSF); interferon-gamma (IFN-gamma); interleukin-1alpha (IL-1alpha); interleukin-6 (IL-6); interleukin-10 (IL-10); interleukin-12p70 (IL-12p70); interleukin-13 (IL-13); IP-10; KC (mouse ortholog of IL-8); MCP-1; MIP-1α; and TNF.

CT26 tumor cells [1] = assay: Long-term adaptive immunity: subcutaneous CT26 re-challenge, Elispot, tumor volume (FIGS. 15, 16); type: in vivo, mice
Excerpt: Mice were initially inoculated (t=0 days) with CT26 tumor cells by way of the hemispleen model, and then treated with:
(1) No treatment with any therapeutic agent (“naive mice”);
(2) Listeria ΔactAΔinlB (3 cycles of Listeria ΔactAΔinlB beginning at t=3 days after inoculation with the CT26 tumor cells. Administration of Listeria was once weekly for three weeks. The Listeria ΔactAΔinlB had not been engineered to express any tumor antigen;
(3) GM-CSF vaccine with Listeria ΔactAΔinlB (1 injection of Listeria ΔactAΔinlB at t=6 days). Administration of the GM-CSF vaccine was started three days after injecting the tumor cells in the hemispleen, that is, on days 3, 6, and 10; or
At t=100 days (shortly before the re-challenge) and at t=107 days (post re-challenge), surviving mice in each group were assessed for long-term immunity (Elispot assays) to the immunodominant antigen of the CT26 cells (AH1 antigen). The first Elispot assay (pre re-challenge) served as a baseline assay for use in assessing adaptive immune response. The second Elispot assay (107 days; post re-challenge) was used to assess adaptive immune response. At t=102 days, all mice were inoculated with CT26 tumor cells by way of a subcutaneous re-challenge. […]
Tumor volume was assessed in the days following the CT26 tumor cell re-challenge (FIG. 16). […] The dimensions of these tumors were measured topically.

CT26 tumor cells [2] = assay: Survival of mice with CT26 hepatic tumors (hemispleen injection model) after attenuated Listeria, with or without CTX; type: in vivo, BALB/c mice; settings: FIG. 1D
Procedure: Hemispleen injections were as follows. BALB/c mice were anaesthetized and the spleen exposed. The spleen was divided into two hemispleens, leaving the vascular pedicles intact. Using a 27 gauge needle, about 0.1 million viable CT26 cells in 0.4 ml HBSS buffer were injected into the spleen, thus allowing cells to flow to the liver. The vascular pedicle draining the cancer-contaminated hemispleen was ligated with a clip, and the CT26-contaminated hemispleen was excised, leaving a functional hemispleen free of tumor cells.
Hepatic tumors were induced in mice as follows. CT26 tumor cells were administered to all mice on day zero (t=0 days) to initiate hepatic tumor formation.
The following concerns the number of doses of Listeria given to the mice. “1×” means that the indicated Listeria strains were administered only at t=3 days post tumor implant (only one dose). “3×” means that the indicated Listeria strains were administered at t=3 days, 6 days, and 9 days. “5×” means that the indicated Listeria strains were administered at t=3 days, 6 days, 9 days, 12 days, and 15 days. The number of administered Listeria ΔactA cells was about 1×10^7 colony forming units (CFU) while the number of Listeria ΔactAΔinlB given was about 2×10^7 CFU (FIG. 1A). […]

Poly (I:C)
IFN-gamma concentration in mouse serum (serum cytokines; 4-8 h (plateau)): (25-30 pg/ml) | G-CSF concentration in mouse serum (serum cytokines; 8-12 h (peak)): (6,000 pg/ml), | IL-1alpha concentration in mouse serum (serum cytokines; 8-12 h (plateau)): (170-300 pg/ml) | G-CSF concentration in mouse serum (serum cytokines; 2 h): to 1200 pg/ml | IFN-gamma concentration in mouse serum (serum cytokines; 2 h): to 15 pg/ml | IL-6 concentration in mouse serum (serum cytokines; 2 h): (7500 pg/ml) | IL-12p70 concentration in mouse serum (serum cytokines; 2 h): 300 at 2 h pg/ml | IP-10 concentration in mouse serum (serum cytokines; 2 h): to 1400 pg/ml | KC concentration in mouse serum (serum cytokines; 2 h): to 900 pg/ml | MCP-1 concentration in mouse serum (serum cytokines; 2 h): to 29,000 pg/ml | MIP-1a concentration in mouse serum (serum cytokines; 2 h): to 1800 pg/ml | TNF concentration in mouse serum (serum cytokines; 2 h): to 1500 pg/ml | IL-13 concentration in mouse serum (serum cytokines; 2 h-24 h): Basal | IL-6 concentration in mouse serum (serum cytokines; 4 h): (5000 pg/ml | IP-10 concentration in mouse serum (serum cytokines; 4 h (peak)): 4 h (2100 pg/ml), | IL-10 concentration in mouse serum (serum cytokines; 4 h, 12 h, 24 h): 8 h. Basal | IL-13 concentration in mouse serum, sporadic spikes in some mice (serum cytokines; 4 h, 12 h, 24 h): about 200 pg/ml) | KC concentration in mouse serum (serum cytokines; 4 h-24 h): near basal | MCP-1 concentration in mouse serum (serum cytokines; 8 h): (10,000 pg/ml | IL-6 concentration in mouse serum (serum cytokines; 12 h): near basal | MCP-1 concentration in mouse serum (serum cytokines; 12 h and 24 h): (1000 pg/ml) | IP-10 concentration in mouse serum (serum cytokines; 24 h): drop (800 pg/ml | IL-10 concentration in mouse serum (serum cytokines; sporadic spikes found at 2 h and at 8 h): of 14-80 pg/ml

O=P1(N(CCCl)CCCl)NCCCO1 (stereo not drawn) [CTX, cyclophosphamide]
Elispot response to AH1 after CT26 re-challenge (CT26 tumor cells [1]; FIG. 15, t=107 days): moderate | mice tumor free following the re-challenge (CT26 tumor cells [1]; subcutaneous re-challenge with 2×10^5 CT26 cells at t=102 days): about 50% | survival (figure legend) (CT26 tumor cells [2]; CTX at t=4 days, Listeria from day 5, 6 or 7): some increase in survival | survival (CT26 tumor cells [2]; CTX only, 50 mg/kg i.p. day 4, t=50 days): about 60%
